Measurements: PubChem BioAssay AID1963848 (Molecular Pharmacology Branch, DTP, NCI, 2024)

System: 379773-124-R-J2-PDC spheroid viability
Test: Anticancer human tumor 379773-124-R-J2-PDC patient-derived endometrial carcinoma cell line growth inhibition [POLQ]
Conditions: spheroids with HUVEC and MSC; for IC50: curve of first compound; for viability, T/C: stronger effect = lower value; active means viability on the fitted dose curve at most 10% of control; inactive means the rest
Procedure, shortened: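 Three-cell-type spheroids modelling solid tumor plus stroma served as the readout system; POL inhibitors were tested individually and in combination, concentration ranges set by clinical Cmax where known.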

[1] = second compound 0.0316 µM, first compound 0.0316 µM
[2] = second compound 0.0316 µM, first compound 0.1 µM
[3] = second compound 0.0316 µM, first compound 0.316 µM
[4] = second compound 0.0316 µM, first compound 1 µM
[5] = second compound 0.0316 µM, first compound 3.16 µM
[6] = second compound 0.0316 µM, first compound 10 µM
[7] = second compound 0.1 µM, first compound 0.0316 µM
[8] = second compound 0.1 µM, first compound 0.1 µM
[9] = second compound 0.1 µM, first compound 0.316 µM
[10] = second compound 0.1 µM, first compound 1 µM
[11] = second compound 0.1 µM, first compound 3.16 µM
[12] = second compound 0.1 µM, first compound 10 µM
[13] = second compound 0.316 µM, first compound 0.0316 µM
[14] = second compound 0.316 µM, first compound 0.1 µM
[15] = second compound 0.316 µM, first compound 0.316 µM
[16] = second compound 0.316 µM, first compound 1 µM
[17] = second compound 0.316 µM, first compound 3.16 µM
[18] = second compound 0.316 µM, first compound 10 µM
[19] = second compound 1 µM, first compound 0.0316 µM
[20] = second compound 1 µM, first compound 0.1 µM
[21] = second compound 1 µM, first compound 0.316 µM
[22] = second compound 1 µM, first compound 1 µM
[23] = second compound 1 µM, first compound 3.16 µM
[24] = second compound 1 µM, first compound 10 µM
[25] = second compound 3.16 µM, first compound 0.0316 µM
[26] = second compound 3.16 µM, first compound 0.1 µM
[27] = second compound 3.16 µM, first compound 0.316 µM
[28] = second compound 3.16 µM, first compound 1 µM
[29] = second compound 3.16 µM, first compound 3.16 µM
[30] = second compound 3.16 µM, first compound 10 µM
[31] = second compound 10 µM, first compound 0.0316 µM
[32] = second compound 10 µM, first compound 0.1 µM
[33] = second compound 10 µM, first compound 0.316 µM
[34] = second compound 10 µM, first compound 1 µM
[35] = second compound 10 µM, first compound 3.16 µM
[36] = second compound 10 µM, first compound 10 µM
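Further: spheroids exposed to drugs for seven days before readout.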
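Wherever viability, T/C is given: percent viability relative to DMSO vehicle control taken as 100%.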

CC1COCCN1c1cc(-c2ccnn2C)c2ccnc(-c3ccn[nH]3)c2n1 (stereo not given) + Nc1ccc(C#CCN(C(=O)Cc2ncc(C(F)(F)F)cc2C(F)(F)F)c2ccc(F)cc2)nn1
142 nM: IC50 (second compound 10 µM)
114 nM: IC50 (second compound 0.316 µM)
133 nM: IC50 (second compound 0.1 µM)
inactive: viability, T/C [1] 89.5% | viability, T/C [2] 56.8% | viability, T/C [3] 13.7% | viability, T/C [7] 89.5% | viability, T/C [8] 61.2% | viability, T/C [9] 15.6% | viability, T/C [10] 11.1% | viability, T/C [11] 12.2% | viability, T/C [12] 8.99% | viability, T/C [13] 90.6% | viability, T/C [14] 54.3% | viability, T/C [15] 16.2% | viability, T/C [16] 11.5% | viability, T/C [17] 12.7% | viability, T/C [18] 7.88% | viability, T/C [19] 93.2% | viability, T/C [20] 60.6% | viability, T/C [21] 13.9% | viability, T/C [22] 9.22% | viability, T/C [23] 12.6% | viability, T/C [24] 9.58% | viability, T/C [25] 91.4% | viability, T/C [26] 62.9% | viability, T/C [27] 13% | viability, T/C [31] 80.1% | viability, T/C [32] 64.2% | viability, T/C [33] 17.7%
120 nM: IC50 (second compound 0.0316 µM)
active: viability, T/C [4] 11.4% | viability, T/C [5] 12% | viability, T/C [6] 6.24% | viability, T/C [28] 10.6% | viability, T/C [29] 10.9% | viability, T/C [30] 7.43% | viability, T/C [34] 8.24% | viability, T/C [35] 12.3% | viability, T/C [36] 8.65%
130 nM: IC50 (second compound 1 µM)
135 nM: IC50 (second compound 3.16 µM)

CC1COCCN1c1cc(C2(S(C)(=N)=O)CC2)nc(-c2ccnc3[nH]ccc23)n1 (stereo not given) + Nc1ccc(C#CCN(C(=O)Cc2ncc(C(F)(F)F)cc2C(F)(F)F)c2ccc(F)cc2)nn1
2760 nM: IC50 (second compound 0.0316 µM)
3070 nM: IC50 (second compound 0.1 µM)
inactive: viability, T/C [1] 89.8% | viability, T/C [2] 90.3% | viability, T/C [3] 86.5% | viability, T/C [4] 89.9% | viability, T/C [5] 44.8% | viability, T/C [7] 89.2% | viability, T/C [8] 89.6% | viability, T/C [9] 87.9% | viability, T/C [10] 83.5% | viability, T/C [11] 49.1% | viability, T/C [13] 89.8% | viability, T/C [14] 97.5% | viability, T/C [15] 87.1% | viability, T/C [16] 84.4% | viability, T/C [17] 44% | viability, T/C [18] 10.4% | viability, T/C [19] 97.9% | viability, T/C [20] 101% | viability, T/C [21] 87.9% | viability, T/C [22] 85.3% | viability, T/C [23] 48.1% | viability, T/C [24] 10.3% | viability, T/C [25] 93.5% | viability, T/C [26] 85.6% | viability, T/C [27] 78.5% | viability, T/C [28] 89.3% | viability, T/C [29] 41.3% | viability, T/C [30] 11.1% | viability, T/C [31] 95.7% | viability, T/C [32] 85.3% | viability, T/C [33] 90.9% | viability, T/C [34] 86.4% | viability, T/C [35] 43.2%
3050 nM: IC50 (second compound 1 µM)
2670 nM: IC50 (second compound 0.316 µM)
2540 nM: IC50 (second compound 3.16 µM)
active: viability, T/C [6] 9.42% | viability, T/C [12] 9.47% | viability, T/C [36] 9.54%
2640 nM: IC50 (second compound 10 µM)

CCCS(=O)(=O)Nc1ccc(F)c(C(=O)c2c[nH]c3ncc(-c4ccc(Cl)cc4)cc23)c1F + Nc1ccc(C#CCN(C(=O)Cc2ncc(C(F)(F)F)cc2C(F)(F)F)c2ccc(F)cc2)nn1
> 10000 nM: IC50 (second compound 0.0316 µM) | IC50 (second compound 0.1 µM) | IC50 (second compound 0.316 µM) | IC50 (second compound 1 µM) | IC50 (second compound 3.16 µM) | IC50 (second compound 10 µM)
inactive: viability, T/C [1] 85.6% | viability, T/C [2] 97.3% | viability, T/C [3] 83.9% | viability, T/C [4] 92% | viability, T/C [5] 80.9% | viability, T/C [6] 55.1% | viability, T/C [7] 95.3% | viability, T/C [8] 88.7% | viability, T/C [9] 87.2% | viability, T/C [10] 85.7% | viability, T/C [11] 81.4% | viability, T/C [12] 55% | viability, T/C [13] 94.6% | viability, T/C [14] 95.8% | viability, T/C [15] 81% | viability, T/C [16] 94.6% | viability, T/C [17] 93.6% | viability, T/C [18] 70.8% | viability, T/C [19] 90.6% | viability, T/C [20] 86.6% | viability, T/C [21] 95.1% | viability, T/C [22] 85.7% | viability, T/C [23] 77.9% | viability, T/C [24] 59.2% | viability, T/C [25] 96.5% | viability, T/C [26] 89.7% | viability, T/C [27] 92.1% | viability, T/C [28] 96.4% | viability, T/C [29] 75.1% | viability, T/C [30] 59.8% | viability, T/C [31] 100% | viability, T/C [32] 87.3% | viability, T/C [33] 79.8% | viability, T/C [34] 83.6% | viability, T/C [35] 81.5% | viability, T/C [36] 54.3%

COc1ccc([C@@H](O)c2cc(-c3ncnc4cc(N5CCOCC5)ccc34)c(F)cc2Cl)nn1 + Nc1ccc(C#CCN(C(=O)Cc2ncc(C(F)(F)F)cc2C(F)(F)F)c2ccc(F)cc2)nn1
7080 nM: IC50 (second compound 3.16 µM)
9880 nM: IC50 (second compound 0.0316 µM)
7780 nM: IC50 (second compound 0.316 µM)
9090 nM: IC50 (second compound 1 µM)
inactive: viability, T/C [1] 98.9% | viability, T/C [2] 104% | viability, T/C [3] 101% | viability, T/C [4] 83.8% | viability, T/C [5] 89.1% | viability, T/C [6] 48.4% | viability, T/C [7] 90.3% | viability, T/C [8] 104% | viability, T/C [9] 89.6% | viability, T/C [10] 95.2% | viability, T/C [11] 77% | viability, T/C [12] 41.6% | viability, T/C [13] 98.4% | viability, T/C [14] 96.2% | viability, T/C [15] 99.3% | viability, T/C [16] 91.4% | viability, T/C [17] 105% | viability, T/C [18] 36.7% | viability, T/C [19] 97.4% | viability, T/C [20] 83.9% | viability, T/C [21] 85.6% | viability, T/C [22] 99.9% | viability, T/C [23] 79.5% | viability, T/C [24] 47.4% | viability, T/C [25] 91.8% | viability, T/C [26] 92.1% | viability, T/C [27] 82.6% | viability, T/C [28] 90.3% | viability, T/C [29] 76.4% | viability, T/C [30] 38.8% | viability, T/C [31] 90.8% | viability, T/C [32] 87% | viability, T/C [33] 87.8% | viability, T/C [34] 85.9% | viability, T/C [35] 105% | viability, T/C [36] 44.2%
8700 nM: IC50 (second compound 10 µM)
7660 nM: IC50 (second compound 0.1 µM)

Cn1ncnc1[C@H]1c2n[nH]c(=O)c3cc(F)cc(c23)N[C@@H]1c1ccc(F)cc1 + Nc1ccc(C#CCN(C(=O)Cc2ncc(C(F)(F)F)cc2C(F)(F)F)c2ccc(F)cc2)nn1
> 100 nM: IC50 (second compound 0.0316 µM) | IC50 (second compound 0.1 µM) | IC50 (second compound 0.316 µM) | IC50 (second compound 1 µM) | IC50 (second compound 3.16 µM) | IC50 (second compound 10 µM)
inactive: viability, T/C (second compound 0.0316 µM, first compound 0.000316 µM) 103% | viability, T/C (second compound 0.0316 µM, first compound 0.001 µM) 86.2% | viability, T/C (second compound 0.0316 µM, first compound 0.00316 µM) 94% | viability, T/C (second compound 0.0316 µM, first compound 0.01 µM) 85.8% | viability, T/C [1] 68.6% | viability, T/C [2] 53.7% | viability, T/C (second compound 0.1 µM, first compound 0.000316 µM) 89.8% | viability, T/C (second compound 0.1 µM, first compound 0.001 µM) 94.6% | viability, T/C (second compound 0.1 µM, first compound 0.00316 µM) 99.3% | viability, T/C (second compound 0.1 µM, first compound 0.01 µM) 91.9% | viability, T/C [7] 79.1% | viability, T/C [8] 55.8% | viability, T/C (second compound 0.316 µM, first compound 0.000316 µM) 100% | viability, T/C (second compound 0.316 µM, first compound 0.001 µM) 102% | viability, T/C (second compound 0.316 µM, first compound 0.00316 µM) 93.6% | viability, T/C (second compound 0.316 µM, first compound 0.01 µM) 86.3% | viability, T/C [13] 72.5% | viability, T/C [14] 64.2% | viability, T/C (second compound 1 µM, first compound 0.000316 µM) 97.7% | viability, T/C (second compound 1 µM, first compound 0.001 µM) 90.1% | viability, T/C (second compound 1 µM, first compound 0.00316 µM) 99.1% | viability, T/C (second compound 1 µM, first compound 0.01 µM) 86.6% | viability, T/C [19] 80.4% | viability, T/C [20] 55.1% | viability, T/C (second compound 3.16 µM, first compound 0.000316 µM) 113% | viability, T/C (second compound 3.16 µM, first compound 0.001 µM) 91.5% | viability, T/C (second compound 3.16 µM, first compound 0.00316 µM) 98% | viability, T/C (second compound 3.16 µM, first compound 0.01 µM) 102% | viability, T/C [25] 67.5% | viability, T/C [26] 58.2% | viability, T/C (second compound 10 µM, first compound 0.000316 µM) 87.7% | viability, T/C (second compound 10 µM, first compound 0.001 µM) 90.6% | viability, T/C (second compound 10 µM, first compound 0.00316 µM) 86.3% | viability, T/C (second compound 10 µM, first compound 0.01 µM) 84% | viability, T/C [31] 78.8% | viability, T/C [32] 56.5%
